Experimental data reported in patent publication US20240238212A1, “LIPID COMPOUNDS AND LIPID NANOPARTICLE COMPOSITIONS” (SUZHOU ABOGEN BIOSCIENCES CO., LTD., priority 2022, published 2024).

Tests used:
[1] = system: human erythropoietin (hEPO) mRNA expression; assay: Animal Study 1: hEPO mRNA LNPs i.v. in mice, serum EPO by ELISA; assay type: in vivo; settings: female ICR mice, 0.5 mg/kg tail vein injection, blood e.g. 6 hours post administration; relative to MC3 LNP
Experimental: Lipid nanoparticles comprising compounds in the following table encapsulating human erythropoietin (hEPO) mRNA were systemically administered to 6-8 week old female ICR mice (Xipuer-Bikai, Shanghai) at 0.5 mg/kg dose by tail vein injection and mice blood were sampled at specific time points (e.g., 6 hours) post administration. In addition to the aforementioned tested groups, lipid nanoparticles comprising dilinoleylmethyl-4-dimethylaminobutyrate (DLin-MC3-DMA, usually abbreviated to MC3) encapsulating hEPO mRNA were similarly administered at the same dose to age and gender comparative groups of mice as a positive control.
Mice were euthanized by CO2 overdoses after the last sampling time point. Serum were separated from total blood by centrifugation at 5000 g for 10 minutes at 4 T, snap-frozen and stored at −80 T for analysis. ELISA assay were carried out using a commercial kit (DEP00, R&D systems) according to manufacturer's instructions.
Characteristics of tested lipid nanoparticles, including EPO expression levels over MC3 measured from the tested group are listed in the table below.

[2] = Encapsulation efficiency of lipid nanoparticles (Quant-it Ribogreen RNA assay); assay type: physicochemical; settings: LNP comprising the compound, hEPO mRNA
Experimental: (§1) Briefly, a cationic lipid provided herein, DSPC, cholesterol, and PEG-lipid were solubilized in ethanol at a molar ratio of 50:10:38.5:1.5, and mRNA were diluted in 10 to 50 mM citrate buffer, pH=4. The LNPs were prepared at a total lipid to mRNA weight ratio of approximately 10:1 to 30:1 by mixing the ethanolic lipid solution with the aqueous mRNA solution at a volume ratio of 1:3 using a microfluidic apparatus, total flow rate ranging from 9-30 mL/min. Ethanol were thereby removed and replaced by DPBS using dialysis. Finally, the lipid nanoparticles were filtered through a 0.2 μm sterile filter.
(§2) Lipid nanoparticle size were determined by dynamic light scattering using a Malvern Zetasizer Nano ZS (Malvern UK) using a 173° backscatter detection mode. The encapsulation efficiency of lipid nanoparticles were determined using a Quant-it Ribogreen RNA quantification assay kit (Thermo Fisher Scientific, UK) according to the manufacturer's instructions.

[3] = Lipid nanoparticle size and polydispersity by dynamic light scattering; assay type: physicochemical; settings: LNP comprising the compound, hEPO mRNA; for Size (nm): cationic lipid/DSPC/cholesterol/PEG-lipid 50:10:38.5:1.5
Experimental: as §1, §2

[4] = Apparent pKa of LNP formulations (TNS fluorescence assay); assay type: physicochemical; settings: LNP formulation, TNS assay (Table 2)
Experimental: As reported in literature, the apparent pKa of LNP formulations correlates with the delivery efficiency of LNPs for nucleic acids in vivo. The apparent pKa of each formulation was determined using an assay based on fluorescence of 2-(p-toluidino)-6-napthalene sulfonic acid (TNS). LNP formulations comprising of cationic lipid/DSPC/cholesterol/DMG-PEG (50/10/38.5/1.5 mol %) in PBS were prepared as described above. TNS was prepared as a 300 μM stock solution in distilled water. LNP formulations were diluted to 0.1 mg/mL total lipid in 3 mL of buffered solutions containing 50 mM sodium citrate, 50 mM sodium phosphate, 50 mM sodium borate, and 30 mM sodium chloride where the pH ranged from 3 to 9. An aliquot of the TNS solution was added to give a final concentration of […] and following vortex mixing fluorescence intensity was measured at room temperature in a Molecular Devices Spectramax iD3 spectrometer using excitation and mission wavelengths of 325 nm and 435 nm. A sigmoidal best fit analysis was applied to the fluorescence data and the pKa value was measured as the pH giving rise to half-maximal fluorescent intensity.

Encapsulation efficiency [2] [%] | Polydispersity [3] | Size (nm) [3] [nm] | Apparent pKa [4] | SMILES | EPO expression over MC3 [1]
 |  |  |  | CCCCCCCC(=O)OCC(CCCCN(CCO)CCCCC(COC(=O)CCCCCCC)COC(=O)CCCCCCC)COC(=O)CCCCCCC [Compound 1] | A (≥2)
 |  |  |  | CCCCCCCC(=O)OCC(CCCCN(CCCCC(COC(=O)CCCCCCC)COC(=O)CCCCCCC)CCN(CCO)C1CCC1)COC(=O)CCCCCCC [Compound 2] | A (≥2)
88.90 | 0.101 | 72.97 | 6.726 | CCCCCCCC(=O)OCC(CCCCN(CCCCCO)CCCCC(COC(=O)CCCCCCC)COC(=O)CCCCCCC)COC(=O)CCCCCCC [Compound 3] | A (≥2)
 |  |  | 6.943 | CCCCCCCCCCCCOC(=O)CCCCCN(CCO)CCCCCC(=O)OCC(COC(=O)CCCCCCC)COC(=O)CCCCCCC [Compound 4] | C (≥0.1 and <1)
87.61 | 0.053 | 56.95 |  | CCCCCCCCC(CCCCCC)C(=O)OCC(CCCCN(CCO)CCCCC(COC(=O)CCCCCCC)COC(=O)CCCCCCC)COC(=O)C(CCCCCC)CCCCCCCC (centres unmarked) [Compound 12] | D (<0.1)
82.84 | 0.049 | 91.43 | 6.457 | CCCCCCCC(=O)OCC(COC(=O)CCCCCCC)OCCCN(CCCOC(COC(=O)CCCCCCC)COC(=O)CCCCCCC)CCN(CCO)C1CCCCC1 [Compound 14] | A (≥2)
94.67 | 0.096 | 77.33 | 6.219 | CCCCCCCCOC(CCCCCN(CCO)CCCCCC(OCCCCCCCC)OCCCCCCCC)OCCCCCCCC [Compound 15] | C (≥0.1 and <1)
90.78 | 0.021 | 68.14 | 6.509 | CCCCCCCC(=O)OCC(CCCCN(CCCCC(COC(=O)CCCCCCC)COC(=O)CCCCCCC)C1CCC(O)CC1)COC(=O)CCCCCCC (centres unmarked) [Compound 16] | A (≥2)
96.64 | 0.056 | 79.67 | 6.189 | CCCCCCCCOC(CCCCCN(CCCCCC(OCCCCCCCC)OCCCCCCCC)CCOCCO)OCCCCCCCC [Compound 17] | C (≥0.1 and <1)
93.58 | 0.057 | 62.64 | 6.251 | CCCCCCCCOC(CCCCCN(CCCCO)CCCCCC(OCCCCCCCC)OCCCCCCCC)OCCCCCCCC [Compound 18] | B (≥1 and <2)
95.52 | 0.07 | 64.48 | 6.216 | CCCCCCCCOC(CCCCCN(CCCCCO)CCCCCC(OCCCCCCCC)OCCCCCCCC)OCCCCCCCC [Compound 19] | B (≥1 and <2)
91.22 | 0.078 | 72.72 | 6.889 | CCCCCCCCCCCCCCCC(=O)OCCCCCCN(CCO)CCCCC(COC(=O)CCCCCCC)COC(=O)CCCCCCC [Compound 20] | A (≥2)
93.42 | 0.017 | 73.11 | 6.962 | CCCCCCCCCCCCCCCCCC(=O)OCCCCCCN(CCO)CCCCC(COC(=O)CCCCCCC)COC(=O)CCCCCCC [Compound 21] | B (≥1 and <2)
89.98 | 0.051 | 79.16 | 6.748 | CCCCC/C=C\C/C=C\CCCCCCCC(=O)OCCCCCCN(CCO)CCCCC(COC(=O)CCCCCCC)COC(=O)CCCCCCC [Compound 22] | A (≥2)
89.04 | 0.084 | 69.97 | 6.601 | CCCCCCCC(=O)OCC(CCCCN(CCCCC(COC(=O)CCCCCCC)COC(=O)CCCCCCC)C1CC(O)C1)COC(=O)CCCCCCC (centres unmarked) [Compound 23] | A (≥2)
90.29 | 0.07 | 70.66 | 6.745 | CCCCCCCC/C=C\CCCCCCCC(=O)OCCCCCCN(CCO)CCCCC(COC(=O)CCCCCCC)COC(=O)CCCCCCC [Compound 24] | C (≥0.1 and <1)
82.87 | 0.085 | 98.05 | 6.418 | CCCCCCCC(=O)OCC(COC(=O)CCCCCCC)OCCCN(CCCCCO)CCCOC(COC(=O)CCCCCCC)COC(=O)CCCCCCC [Compound 25] | B (≥1 and <2)
85.33 | 0.01 | 55.11 | 6.332 | CCCCCCCCC(CCCCCC)CNC(=O)CCCCCN(CCO)CCCCC(COC(=O)C(CCCCCC)CCCCCCCC)COC(=O)C(CCCCCC)CCCCCCCC (centres unmarked) [Compound 26] | C (≥0.1 and <1)
91.59 | 0.073 | 64.02 | 6.404 | CCCCCCCC(=O)OCC(CCCCN(CCCCC(COC(=O)CCCCCCC)COC(=O)CCCCCCC)CCCNc1c(N(C)C)c(=O)c1=O)COC(=O)CCCCCCC [Compound 27] | A (≥2)
93.31 | 0.1163 | 66.72 |  | CCCCCCCCCCC(=O)OCCCCCCN(CCCCC(COC(=O)CCCCCCC)COC(=O)CCCCCCC)CCCNc1c(N(C)C)c(=O)c1=O [Compound 40] | 
95.98 | 0.08791 | 55.42 |  | CCCCCCCCCCCCCCCCCC(=O)OCCCCCCN(CCCCC(COC(=O)CCCCCCC)COC(=O)CCCCCCC)CCCNc1c(N(C)C)c(=O)c1=O [Compound 41] | 
86.17 | 0.126 | 74.63 |  | CCCCCCCC(=O)OCC(CCCCN(CCCCC(COC(=O)CCCCCCC)COC(=O)CCCCCCC)[C@@H](CO)C(C)C)COC(=O)CCCCCCC [Compound 44] | 
86.40 | 0.14 | 61.88 |  | CCCCCCCC(=O)OCC(CCCCN(CCCCC(COC(=O)CCCCCCC)COC(=O)CCCCCCC)CC1(CO)CCC1)COC(=O)CCCCCCC [Compound 45] | 
73.99 | 0.135 | 68.21 |  | CCCCCCCC(=O)OCC(CCCCN(CCCCC(COC(=O)CCCCCCC)COC(=O)CCCCCCC)[C@H](CO)C(C)C)COC(=O)CCCCCCC [Compound 46] | 
83.82 | 0.111 | 69.44 |  | CCCCCCCC(=O)OCC(CCCCN(CCCCC(COC(=O)CCCCCCC)COC(=O)CCCCCCC)CC1(CO)CCCC1)COC(=O)CCCCCCC [Compound 49] | 
83.93 | 0.117 | 67.07 |  | CCCCCCCC(=O)OCC(CCCCN(CCCCC(COC(=O)CCCCCCC)COC(=O)CCCCCCC)CCC1(O)CCCCC1)COC(=O)CCCCCCC [Compound 50] | 
